# According to ChEMBL document CHEMBL5329208 (RSC Med Chem, 2023):
# Key:
# Hepatitis B virus = assay: Antiviral activity against HBV infected human HePAD38 cells assessed as reduction of HBV DNA level with compound replacement for every 3 days and measured on day 6 by qPCR analysis; type: functional, organism-based
# [1] = Cytotoxicity against human HePAD38 cells assessed as reduction in cell viability by CCK-8 assay; type: toxicity, cell-based
# [2] = Selectivity index, ratio of CC50 for cytotoxicity against human HePAD38 cells assessed as reduction in cell viability to EC50 for antiviral activity against HBV infected human HePAD38 cells assessed as reduction of HBV DNA level; type: toxicity, cell-based; conditions: read-out: Ratio CC50/EC50
# CYP1A2 = target: T1, CYP1A2 (Homo sapiens, UniProt P05177); assay: Inhibition of CYP1A2 (unknown origin) at 10 uM using phenacetin as substrate incubated for 10 mins in presence of NADPH by LC-MS/MS analysis relative to control; type: ADME; conditions: probe phenacetin
# T1 sequence (P05177 whole entry): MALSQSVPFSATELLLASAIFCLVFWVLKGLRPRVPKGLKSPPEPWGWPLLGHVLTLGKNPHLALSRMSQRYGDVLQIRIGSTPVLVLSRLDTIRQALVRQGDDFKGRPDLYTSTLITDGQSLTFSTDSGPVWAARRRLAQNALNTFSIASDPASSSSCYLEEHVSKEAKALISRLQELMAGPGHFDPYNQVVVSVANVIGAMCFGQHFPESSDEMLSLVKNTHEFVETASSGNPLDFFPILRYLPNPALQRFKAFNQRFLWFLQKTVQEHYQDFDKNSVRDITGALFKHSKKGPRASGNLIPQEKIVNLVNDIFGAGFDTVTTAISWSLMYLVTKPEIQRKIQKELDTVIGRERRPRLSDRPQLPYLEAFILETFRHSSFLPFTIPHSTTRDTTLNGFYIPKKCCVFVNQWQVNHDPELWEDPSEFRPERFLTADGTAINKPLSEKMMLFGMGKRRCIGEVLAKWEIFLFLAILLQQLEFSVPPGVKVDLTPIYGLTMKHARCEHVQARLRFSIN
# [3] = Metabolic stability in human liver microsome assessed as half life preincubated for 10 mins followed by NADPH addition and measured after 60 mins by LC-MS/MS analysis; type: ADME; conditions: liver microsomes, time 70 min
# [4] = Metabolic stability in human liver microsome assessed as intrinsic clearance preincubated for 10 mins followed by NADPH addition and measured after 60 mins by LC-MS/MS analysis; type: ADME; conditions: liver microsomes, time 70 min, read-out: CLH
# [5] = Metabolic stability in human liver assessed as intrinsic clearance preincubated for 10 mins followed by NADPH addition and measured after 60 mins by LC-MS/MS analysis; type: ADME, tissue-based; conditions: time 70 min, read-out: CLH
# hERG (KCNH2) = hERG (KCNH2) (Homo sapiens, UniProt Q12809); assay: Inhibition of hERG expressed in HEK293 cells at 1 uM at holding potential of -80 mV by whole cell patch clamp assay relative to control; type: toxicity, cell-based; conditions: HEK293 cells expressing hERG
# CYP2C19 = CYP2C19 (Homo sapiens, UniProt P33261); assay: Inhibition of CYP2C19 (unknown origin) at 10 uM using s-mephenytoin as substrate incubated for 10 mins in presence of NADPH by LC-MS/MS analysis relative to control; type: ADME; conditions: probe S-mephenytoin
# CYP2C9 = CYP2C9 (Homo sapiens, UniProt P11712); assay: Inhibition of CYP2C9 (unknown origin) at 10 uM using diclofenac as substrate incubated for 10 mins in presence of NADPH by LC-MS/MS analysis relative to control; type: ADME; conditions: probe diclofenac
# Sequence of CYP2C9 (P11712 whole entry): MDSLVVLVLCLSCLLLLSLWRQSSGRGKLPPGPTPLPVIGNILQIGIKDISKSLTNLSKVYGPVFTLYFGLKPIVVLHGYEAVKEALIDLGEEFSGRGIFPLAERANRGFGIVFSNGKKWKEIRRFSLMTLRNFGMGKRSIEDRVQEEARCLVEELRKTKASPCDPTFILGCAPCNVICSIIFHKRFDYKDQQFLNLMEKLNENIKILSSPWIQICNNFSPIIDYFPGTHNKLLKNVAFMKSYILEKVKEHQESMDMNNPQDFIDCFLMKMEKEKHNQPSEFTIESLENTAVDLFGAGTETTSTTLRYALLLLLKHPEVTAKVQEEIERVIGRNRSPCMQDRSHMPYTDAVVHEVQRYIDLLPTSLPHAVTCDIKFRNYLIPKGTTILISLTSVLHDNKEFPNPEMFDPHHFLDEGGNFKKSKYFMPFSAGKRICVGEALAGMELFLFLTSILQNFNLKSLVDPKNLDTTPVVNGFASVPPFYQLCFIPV
# Sequence of hERG (KCNH2) (Q12809 whole entry): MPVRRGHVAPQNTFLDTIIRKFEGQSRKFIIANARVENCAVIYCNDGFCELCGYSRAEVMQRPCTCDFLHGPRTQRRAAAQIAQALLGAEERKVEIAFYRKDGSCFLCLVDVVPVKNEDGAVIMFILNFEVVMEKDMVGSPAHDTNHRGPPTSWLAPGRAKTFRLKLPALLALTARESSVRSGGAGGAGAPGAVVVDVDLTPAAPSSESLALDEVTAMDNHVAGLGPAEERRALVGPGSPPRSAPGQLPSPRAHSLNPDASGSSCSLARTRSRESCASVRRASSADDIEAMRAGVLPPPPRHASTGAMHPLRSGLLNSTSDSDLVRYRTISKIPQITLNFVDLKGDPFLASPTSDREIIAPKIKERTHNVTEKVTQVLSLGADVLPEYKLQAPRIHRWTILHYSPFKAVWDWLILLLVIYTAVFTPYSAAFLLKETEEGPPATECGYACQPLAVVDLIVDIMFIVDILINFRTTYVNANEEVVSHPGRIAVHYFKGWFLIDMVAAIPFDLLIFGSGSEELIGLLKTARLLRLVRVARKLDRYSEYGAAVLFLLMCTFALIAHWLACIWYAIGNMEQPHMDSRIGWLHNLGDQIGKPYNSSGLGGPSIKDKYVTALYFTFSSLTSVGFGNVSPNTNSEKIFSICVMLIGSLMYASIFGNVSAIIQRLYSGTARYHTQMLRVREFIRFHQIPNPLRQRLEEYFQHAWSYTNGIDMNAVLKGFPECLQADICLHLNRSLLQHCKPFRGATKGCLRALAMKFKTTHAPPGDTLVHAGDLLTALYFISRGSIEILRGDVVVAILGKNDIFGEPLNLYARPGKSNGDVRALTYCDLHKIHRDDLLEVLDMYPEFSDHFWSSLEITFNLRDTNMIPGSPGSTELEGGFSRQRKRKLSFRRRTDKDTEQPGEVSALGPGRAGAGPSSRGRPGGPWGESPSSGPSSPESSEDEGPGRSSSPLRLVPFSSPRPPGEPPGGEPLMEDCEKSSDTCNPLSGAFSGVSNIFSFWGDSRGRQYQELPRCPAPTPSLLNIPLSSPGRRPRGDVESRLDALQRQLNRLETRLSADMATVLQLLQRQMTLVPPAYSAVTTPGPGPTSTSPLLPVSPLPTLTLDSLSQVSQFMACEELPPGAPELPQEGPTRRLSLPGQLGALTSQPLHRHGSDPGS
# Sequence of CYP2C19 (P33261 whole entry): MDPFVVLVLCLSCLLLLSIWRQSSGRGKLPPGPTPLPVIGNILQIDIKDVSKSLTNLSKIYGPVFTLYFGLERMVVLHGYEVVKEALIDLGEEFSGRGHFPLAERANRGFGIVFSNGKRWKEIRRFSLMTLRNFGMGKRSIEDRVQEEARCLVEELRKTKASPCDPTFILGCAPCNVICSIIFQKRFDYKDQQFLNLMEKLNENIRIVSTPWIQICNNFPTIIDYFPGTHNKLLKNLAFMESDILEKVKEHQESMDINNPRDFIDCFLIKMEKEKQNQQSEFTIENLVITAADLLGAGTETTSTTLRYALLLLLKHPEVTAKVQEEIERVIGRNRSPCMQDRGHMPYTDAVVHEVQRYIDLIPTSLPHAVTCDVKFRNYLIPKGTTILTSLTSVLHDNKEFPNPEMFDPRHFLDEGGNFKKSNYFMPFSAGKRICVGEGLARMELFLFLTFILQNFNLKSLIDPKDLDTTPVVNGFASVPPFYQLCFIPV
Compound,EC50 (Hepatitis B virus),CC50 [1],selectivity ratio [2],also measured
CCOC(=O)C1=C(CN2CCN(C(C(=O)O)c3ccc4occc4c3)CC2)NC(c2nccs2)=NC1c1ccc(F)cc1Br (stereo not drawn),2.28 µM,22.4 µM,9.8,
CCOC(=O)C1=C(CN2CCN(C(C(=O)O)c3cccc(C(F)F)c3)CC2)NC(c2nccs2)=NC1c1ccc(F)cc1Br (stereo not drawn),> 10 µM,22.4 µM,< 2.2,
CCOC(=O)C1=C(CN2CCN(C(C(=O)O)c3ccoc3)CC2)NC(c2nccs2)=NC1c1ccc(F)cc1Br (stereo not drawn),> 10 µM,> 50 µM,,
CCOC(=O)C1=C(CN2CCN(C(C(=O)O)c3ccc(F)cc3)CC2)NC(c2nccs2)=NC1c1ccc(F)cc1Br (stereo not drawn),> 10 µM,29.2 µM,< 2.9,
CCOC(=O)C1=C(CN2CCN(C(C(=O)O)c3ccccc3)CC2)NC(c2nccs2)=NC1c1ccc(F)cc1Br (stereo not drawn),2.69 µM,> 50 µM,> 18.6,
CCOC(=O)C1=C(CN2CCN(C(C(=O)O)c3ccccc3O)CC2)NC(c2nccs2)=NC1c1ccc(F)cc1Br (stereo not drawn),6.48 µM,22.4 µM,3.4,
CCOC(=O)C1=C(CN2CCN(C(C(=O)O)c3ccc(C#N)cc3)CC2)NC(c2nccs2)=NC1c1ccc(F)cc1Br (stereo not drawn),4.31 µM,29.2 µM,6.8,
CCOC(=O)C1=C(CN2CCN(C(C(=O)O)C3=CCCCC3)CC2)NC(c2nccs2)=NC1c1ccc(F)cc1Br (stereo not drawn),0.84 µM,29.2 µM,34.8,
C=Cc1ccc(C(C(=O)O)N2CCN(CC3=C(C(=O)OCC)C(c4ccc(F)cc4Br)N=C(c4nccs4)N3)CC2)cc1 (stereo not drawn),3.78 µM,22.4 µM,5.9,
CCOC(=O)C1=C(CN2CCN(C(C(=O)O)c3ccc(Cl)cc3)CC2)NC(c2nccs2)=NC1c1ccc(F)cc1Br (stereo not drawn),0.39 µM,22.4 µM,57.3,
CCOC(=O)C1=C(CN2CCN(C(C(=O)O)c3cccc(C)c3)CC2)NC(c2nccs2)=NC1c1ccc(F)cc1Br (stereo not drawn),2.52 µM,22.4 µM,8.9,
O=c1cc(-c2ccccc2)oc2c1ccc1ccccc12 [ALPHA-NAPHTHOFLAVONE],,,,"inhibition at 10 min, 10 µM (CYP1A2): 88.7%"
C[C@]12CC[C@H]3[C@@H](CCC4=CC(=O)CC[C@@]43C)[C@@H]1CC[C@@H]2O [TESTOSTERONE],,,,half-life [3]: 10.7 min; microsomal CLint [4]: 130 µL/min/mg; CLint scaled [5]: 7 L/h/kg
CCOC(=O)C1=C(CN2CCN(C(C(=O)O)c3ccc4c(c3)OCCO4)CC2)NC(c2nccs2)=NC1c1ccc(F)cc1Br (stereo not drawn),0.044 µM,22.4 µM,508,
CCOC(=O)C1=C(CN2CCN(C(C(=O)O)c3ccc(OC)cc3)CC2)NC(c2nccs2)=NC1c1ccc(F)cc1Br (stereo not drawn),> 10 µM,29.2 µM,< 2.9,
CCOC(=O)C1=C(CN2CCN(C(C(=O)O)c3ccc(Br)cc3)CC2)NC(c2nccs2)=NC1c1ccc(F)cc1Br (stereo not drawn),1.24 µM,22.4 µM,18,
CCOC(=O)C1=C(CN2CCN(C(C(=O)O)c3cccc(O)c3)CC2)NC(c2nccs2)=NC1c1ccc(F)cc1Br (stereo not drawn),2.38 µM,> 50 µM,> 21,
CCOC(=O)C1=C(CN2CCN(C(C(=O)O)c3ccc(O)cc3)CC2)NC(c2nccs2)=NC1c1ccc(F)cc1Br (stereo not drawn),6.3 µM,22.4 µM,3.5,
CCOC(=O)C1=C(CN2CCN(C(C(=O)O)c3cccc(C#N)c3)CC2)NC(c2nccs2)=NC1c1ccc(F)cc1Br (stereo not drawn),> 10 µM,22.4 µM,< 2.2,

Compound,EC50 (Hepatitis B virus),CC50 [1],selectivity ratio [2],also measured
COc1cc(N)c(Cl)cc1C(=O)NC1CCN(CCCOc2ccc(F)cc2)CC1OC (stereo not drawn) [CISAPRIDE],,,,inhibition at 1 µM (hERG (KCNH2)): 96.7%
CCOC(=O)C1=C(CN2CCN(C(C(=O)O)C3=CCCC3)CC2)NC(c2nccs2)=NC1c1ccc(F)cc1Br (stereo not drawn),0.5 µM,> 50 µM,> 100,
CCOC(=O)C1=C(CN2CCN(C(C(=O)O)c3ccsc3)CC2)NC(c2nccs2)=NC1c1ccc(F)cc1Br (stereo not drawn),0.07 µM,> 50 µM,962,
CCOC(=O)C1=C(CN2CCN(C(C(=O)O)c3cccc4ccccc34)CC2)NC(c2nccs2)=NC1c1ccc(F)cc1Br (stereo not drawn),0.85 µM,22.4 µM,26.3,
C#Cc1cccc(C(C(=O)O)N2CCN(CC3=C(C(=O)OCC)C(c4ccc(F)cc4Br)N=C(c4nccs4)N3)CC2)c1 (stereo not drawn),> 10 µM,22.4 µM,< 2.2,
O=C(O)Cc1ccccc1Nc1c(Cl)cccc1Cl [DICLOFENAC],,,,microsomal CLint [4]: 235 µL/min/mg; CLint scaled [5]: 12.7 L/h/kg
CC[C@@]1(c2ccccc2)NC(=O)N(Cc2ccccc2)C1=O,,,,"inhibition at 10 min, 10 µM (CYP2C19): 89.4%"
CCOC(=O)C1=C(CN2CCN(C(C(=O)O)c3ccc4c(c3)OCO4)CC2)NC(c2nccs2)=NC1c1ccc(F)cc1Br (stereo not drawn),2.46 µM,22.4 µM,9.1,
CCOC(=O)C1=C(CN2CCN(C(C(=O)O)c3ccccc3C)CC2)NC(c2nccs2)=NC1c1ccc(F)cc1Br (stereo not drawn),0.58 µM,22.4 µM,30.2,
Nc1ccc(S(=O)(=O)Nc2ccnn2-c2ccccc2)cc1 [SULFAPHENAZOLE],,,,"inhibition at 10 min, 10 µM (CYP2C9): 87.1%"
CCOC(=O)C1=C(CN2CCN(C(C(=O)O)c3ccc(C)cc3)CC2)NC(c2nccs2)=NC1c1ccc(F)cc1Br (stereo not drawn),8.48 µM,22.4 µM,2.6,
CCOC(=O)C1=C(CN2CCN(C(C(=O)O)c3ccccc3OC)CC2)NC(c2nccs2)=NC1c1ccc(F)cc1Br (stereo not drawn),2.35 µM,50 µM,21.3,
CCOC(=O)C1=C(CN2CCN(C(C(=O)O)c3ccc(CC)cc3)CC2)NC(c2nccs2)=NC1c1ccc(F)cc1Br (stereo not drawn),0.46 µM,22.4 µM,41.4,
CCOC(=O)C1=C(CN2CCN(C(C(=O)O)c3cccc(C=O)c3)CC2)NC(c2nccs2)=NC1c1ccc(F)cc1Br (stereo not drawn),> 10 µM,> 50 µM,2440,
CCOC(=O)C1=C(CN2CCN(C(C(=O)O)c3ccc(C=O)cc3)CC2)NC(c2nccs2)=NC1c1ccc(F)cc1Br (stereo not drawn),3.87 µM,> 50 µM,> 12.9,
CCOC(=O)C1=C(CN2CCN(C(C(=O)O)c3cccc(F)c3)CC2)NC(c2nccs2)=NC1c1ccc(F)cc1Br (stereo not drawn),> 10 µM,22.4 µM,< 2.2,
CCOC(=O)C1=C(CN2CCN(C(C(=O)O)c3cccc(C(F)(F)F)c3)CC2)NC(c2nccs2)=NC1c1ccc(F)cc1Br (stereo not drawn),9.98 µM,22.4 µM,2.2,
CCOC(=O)C1=C(CN2CCN(C(C(=O)O)c3ccc(OC)c(OC)c3)CC2)NC(c2nccs2)=NC1c1ccc(F)cc1Br (stereo not drawn),> 10 µM,> 50 µM,,
CCOC(=O)C1=C(CN2CCN(C(C(=O)O)c3ccccc3C#N)CC2)NC(c2nccs2)=NC1c1ccc(F)cc1Br (stereo not drawn),5.36 µM,50 µM,9.3,
